Experimental data as given in patent EP0550016A1, “Novel quinolone carboxylic acid derivatives and processes for preparing same” (KOREA RESEARCH INSTITUTE OF CHEMICAL TECHNOLOGY, priority 1991, dated 1993).
≈ marks a conversion by molar mass, not a printed value. Where two headings read alike, the source gives them in different places.

How the values were obtained:
[1] = tested on: Staphylococcus aureus 208 E; assay: In vitro anti-bacterial activity test (MIC, two-fold dilution method), Table 2 strains; format: cell-based; details: Table 2 strain 3: Staphylococcus aureus 208 E; read-out: MIC
[2] = tested on: Staphylococcus aureus 285; assay: In vitro anti-bacterial activity test (MIC, two-fold dilution method) against the standard strains; format: cell-based; details: Table 1 strain 5: Staphylococcus aureus 285; read-out: MIC
[3] = tested on: Pseudomonas aeruginosa 9027; assay: as above; format: cell-based; details: Table 1 strain 12: Pseudomonas aeruginosa 9027
[4] = tested on: Staphylococcus aureus 714 E; assay: In vitro anti-bacterial activity test (MIC, two-fold dilution method), Table 2 strains; format: cell-based; details: Table 2 strain 18: Staphylococcus aureus 714 E; read-out: MIC
[5] = tested on: Staphylococcus aureus 705 E; assay: as above; format: cell-based; details: Table 2 strain 13: Staphylococcus aureus 705 E; read-out: MIC
[6] = tested on: Streptococcus pyogenes 308 A; assay: In vitro anti-bacterial activity test (MIC, two-fold dilution method) against the standard strains; format: cell-based; details: Table 1 strain 1: Streptococcus pyogenes 308 A
[7] = tested on: Streptococcus pyogenes 77 A; assay: as above; format: cell-based; details: Table 1 strain 2: Streptococcus pyogenes 77 A; read-out: MIC
Escherichia coli OTEM = assay: as above; format: cell-based; details: Table 1 strain 10: Escherichia coli OTEM
[8] = tested on: Staphylococcus aureus 711 E; assay: In vitro anti-bacterial activity test (MIC, two-fold dilution method), Table 2 strains; format: cell-based; details: Table 2 strain 17: Staphylococcus aureus 711 E; read-out: MIC
[9] = tested on: Staphylococcus aureus 503; assay: In vitro anti-bacterial activity test (MIC, two-fold dilution method) against the standard strains; format: cell-based; details: Table 1 strain 6: Staphylococcus aureus 503; read-out: MIC
[10] = tested on: Staphylococcus aureus 708 E; assay: In vitro anti-bacterial activity test (MIC, two-fold dilution method), Table 2 strains; format: cell-based; details: Table 2 strain 16: Staphylococcus aureus 708 E
[11] = tested on: Staphylococcus aureus 256 E; assay: as above; format: cell-based; details: Table 2 strain 4: Staphylococcus aureus 256 E
[12] = tested on: Pseudomonas aeruginosa 1592 E; assay: In vitro anti-bacterial activity test (MIC, two-fold dilution method) against the standard strains; format: cell-based; details: Table 1 strain 13: Pseudomonas aeruginosa 1592 E
[13] = tested on: Staphylococcus aureus 121 E; assay: In vitro anti-bacterial activity test (MIC, two-fold dilution method), Table 2 strains; format: cell-based; details: Table 2 strain 2: Staphylococcus aureus 121 E; read-out: MIC
[14] = tested on: Staphylococcus aureus 703 E; assay: as above; format: cell-based; details: Table 2 strain 12: Staphylococcus aureus 703 E; read-out: MIC
[15] = tested on: Klebsiella aerogenes 1082 E; assay: In vitro anti-bacterial activity test (MIC, two-fold dilution method) against the standard strains; format: cell-based; details: Table 1 strain 17: Klebsiella aerogenes 1082 E
[16] = tested on: Streptococcus faecium MD 8b; assay: as above; format: cell-based; details: Enterococcus faecium, MD8B; Table 1 strain 3: Streptococcus faecium MD 8b; read-out: MIC
[17] = tested on: Staphylococcus aureus 88 E; assay: In vitro anti-bacterial activity test (MIC, two-fold dilution method), Table 2 strains; format: cell-based; details: Table 2 strain 1: Staphylococcus aureus 88 E
[18] = tested on: Staphylococcus aureus 706 E; assay: as above; format: cell-based; details: Table 2 strain 14: Staphylococcus aureus 706 E; read-out: MIC
[19] = tested on: Staphylococcus aureus 701 E; assay: as above; format: cell-based; details: Table 2 strain 11: Staphylococcus aureus 701 E; read-out: MIC
[20] = tested on: Staphylococcus aureus 725 E; assay: as above; format: cell-based; details: Table 2 strain 19: Staphylococcus aureus 725 E; read-out: MIC
[21] = tested on: Staphylococcus aureus 693 E; assay: as above; format: cell-based; details: Table 2 strain 7: Staphylococcus aureus 693 E; read-out: MIC
[22] = tested on: Staphylococcus aureus 694 E; assay: as above; format: cell-based; details: Table 2 strain 8: Staphylococcus aureus 694 E; read-out: MIC
Escherichia coli 1507 E = assay: In vitro anti-bacterial activity test (MIC, two-fold dilution method) against the standard strains; format: cell-based; details: Table 1 strain 11: Escherichia coli 1507 E
[23] = tested on: Staphylococcus aureus 695 E; assay: In vitro anti-bacterial activity test (MIC, two-fold dilution method), Table 2 strains; format: cell-based; details: Table 2 strain 9: Staphylococcus aureus 695 E; read-out: MIC
[24] = tested on: Enterobacter cloacae P 99; assay: In vitro anti-bacterial activity test (MIC, two-fold dilution method) against the standard strains; format: cell-based; details: P99; Table 1 strain 19: Enterobacter cloacae P 99
[25] = tested on: Pseudomonas aeruginosa 1771; assay: as above; format: cell-based; details: Table 1 strain 14: Pseudomonas aeruginosa 1771
Escherichia coli DC 0 [26] = assay: as above; format: cell-based; details: DC0; Table 1 strain 7: Escherichia coli DC 0
[27] = tested on: Klebsiella aerogenes 1522 E; assay: as above; format: cell-based; details: Table 1 strain 18: Klebsiella aerogenes 1522 E
[28] = tested on: Staphylococcus aureus SG 511; assay: as above; format: cell-based; details: SG511; Table 1 strain 4: Staphylococcus aureus SG 511
Escherichia coli DC 0 [29] = assay: as above; format: cell-based; details: DC0; Table 1 strain 8: Escherichia coli DC 0
Salmonella typhimurium = assay: as above; format: cell-based; details: Salmonella enterica; Table 1 strain 16: Salmonella typhimurium
[30] = tested on: Staphylococcus aureus 692 E; assay: In vitro anti-bacterial activity test (MIC, two-fold dilution method), Table 2 strains; format: cell-based; details: Table 2 strain 6: Staphylococcus aureus 692 E
[31] = tested on: Staphylococcus aureus 707 E; assay: as above; format: cell-based; details: Table 2 strain 15: Staphylococcus aureus 707 E; read-out: MIC
[32] = tested on: Staphylococcus aureus 690 E; assay: as above; format: cell-based; details: Table 2 strain 5: Staphylococcus aureus 690 E; read-out: MIC
Escherichia coli DC 2 = assay: In vitro anti-bacterial activity test (MIC, two-fold dilution method) against the standard strains; format: cell-based; details: DC2; Table 1 strain 9: Escherichia coli DC 2; read-out: MIC
[33] = tested on: Pseudomonas aeruginosa 1771 M; assay: as above; format: cell-based; details: Table 1 strain 15: Pseudomonas aeruginosa 1771 M
[34] = tested on: Enterobacter cloacae 1321 E; assay: as above; format: cell-based; details: Table 1 strain 20: Enterobacter cloacae 1321 E
[35] = tested on: Staphylococcus aureus 697 E; assay: In vitro anti-bacterial activity test (MIC, two-fold dilution method), Table 2 strains; format: cell-based; details: Table 2 strain 10: Staphylococcus aureus 697 E
P. mirabilis = assay: Preventive effect against the systemic infection; format: in vivo; details: Proteus mirabilis, 168 h, NMRI mice, survival on day 7, read-out: ED₅₀
Experimental: (§1) 10 fold of the pathogen which leads to 100% lethality were injected intraperitoneally to male and female NMRI mice weighing 18 to 20g. Immediately and after 4 hours, the dose of test compounds which was determined by two-fold serial dilution method was administered orally or subcutaneously; and on day 7, the effectiveness was evaluated in terms of ED₅₀ calculated from the number of survived mice by the probit analysis.

S. aureus 17740 = assay: Preventive effect against the systemic infection; format: in vivo; details: Staphylococcus aureus, 168 h, NMRI mice, survival on day 7, read-out: ED₅₀
Experimental: as §1

Work on `CNC1CC12CCN(c1c(F)cc3c(=O)c(C(=O)O)cn(C4CC4)c3c1Cl)C2` (stereo not shown) [Example 9, 7-(1-methylamino-5-azaspiro[2,4]heptane-5-yl)-8-chloro-1-cyclopropyl-6-fluoro-1,4-dihydro-4-oxo-quinoline-3-carboxylic acid] yielded an MIC [1] of 0.098 µg/mL (≈ 0.241 µM), an MIC [2] of 0.049 µg/mL (≈ 0.121 µM) and an MIC [3] of 3.12 µg/mL (≈ 7.7 µM). It also gave an MIC [4] of 0.098 µg/mL (≈ 0.241 µM), an MIC [5] of 0.098 µg/mL (≈ 0.241 µM) and an MIC [6] of 0.391 µg/mL (≈ 0.963 µM). It also gave an MIC [7] of 0.195 µg/mL (≈ 0.48 µM), an MIC (Escherichia coli OTEM) of 0.049 µg/mL (≈ 0.121 µM) and an MIC [8] of 0.025 µg/mL (≈ 0.0616 µM). It also gave an MIC [9] of 0.049 µg/mL (≈ 0.121 µM), an MIC [10] of 0.025 µg/mL (≈ 0.0616 µM) and an MIC [11] of 0.098 µg/mL (≈ 0.241 µM). For the same compound, the MIC [12] was 1.56 µg/mL (≈ 3.85 µM), the MIC [13] was 0.098 µg/mL (≈ 0.241 µM) and the MIC [14] was 0.098 µg/mL (≈ 0.241 µM). The MIC [15] was 0.025 µg/mL (≈ 0.0616 µM), the MIC [16] was 0.195 µg/mL (≈ 0.48 µM) and the MIC [17] was 0.195 µg/mL (≈ 0.48 µM). The MIC [18] was 0.098 µg/mL (≈ 0.241 µM), the MIC [19] was 0.098 µg/mL (≈ 0.241 µM) and the MIC [20] was 0.098 µg/mL (≈ 0.241 µM). For the same compound, the MIC [21] was 0.049 µg/mL (≈ 0.121 µM), the MIC [22] was 0.098 µg/mL (≈ 0.241 µM) and the MIC (Escherichia coli 1507 E) was 0.098 µg/mL (≈ 0.241 µM). It also gave an MIC [23] of 0.049 µg/mL (≈ 0.121 µM), an MIC [24] of 0.098 µg/mL (≈ 0.241 µM) and an MIC [25] of 1.56 µg/mL (≈ 3.85 µM). The MIC (Escherichia coli DC 0 [26]) was 0.025 µg/mL (≈ 0.0616 µM), the MIC [27] was 0.195 µg/mL (≈ 0.48 µM) and the MIC [28] was 0.049 µg/mL (≈ 0.121 µM). For the same compound, the MIC (Escherichia coli DC 0 [29]) was 0.391 µg/mL (≈ 0.963 µM), the MIC (Salmonella typhimurium) was 0.049 µg/mL (≈ 0.121 µM) and the MIC [30] was 0.049 µg/mL (≈ 0.121 µM). The MIC [31] was 0.098 µg/mL (≈ 0.241 µM), the MIC [32] was 0.049 µg/mL (≈ 0.121 µM) and the MIC (Escherichia coli DC 2) was 0.098 µg/mL (≈ 0.241 µM). It also gave an MIC [33] of 0.781 µg/mL (≈ 1.92 µM), an MIC [34] of 0.025 µg/mL (≈ 0.0616 µM) and an MIC [35] of 0.049 µg/mL (≈ 0.121 µM).

For `CC1COc2c(N3CCN(C)CC3)c(F)cc3c(=O)c(C(=O)O)cn1c23` (stereo not shown) [Ofloxacin, ofloxacin, reference compound], the MIC [1] was 0.781 µg/mL (≈ 2.16 µM), the MIC [2] was 0.391 µg/mL (≈ 1.08 µM) and the MIC [3] was 1.56 µg/mL (≈ 4.33 µM). It also gave an MIC [4] of 0.391 µg/mL (≈ 1.08 µM), an MIC [5] of 0.781 µg/mL (≈ 2.16 µM) and an MIC [6] of 3.12 µg/mL (≈ 8.65 µM). The MIC [7] was 1.56 µg/mL (≈ 4.33 µM), the MIC (Escherichia coli OTEM) was 0.049 µg/mL (≈ 0.136 µM) and the MIC [8] was 0.391 µg/mL (≈ 1.08 µM). For the same compound, the MIC [9] was 0.391 µg/mL (≈ 1.08 µM), the MIC [10] was 0.195 µg/mL (≈ 0.54 µM) and the ED50 (P. mirabilis; Oral Administration) was 2.21 mg/kg. The ED50 (P. mirabilis; sc, Subcutaneous Injection) was 0.33 mg/kg, the ED50 (S. aureus 17740; Oral Administration) was > 200 mg/kg and the ED50 (S. aureus 17740; sc, Subcutaneous Injection) was 200 mg/kg. For the same compound, the MIC [11] was 0.781 µg/mL (≈ 2.16 µM), the MIC [12] was 1.56 µg/mL (≈ 4.33 µM) and the MIC [13] was 0.781 µg/mL (≈ 2.16 µM). The MIC [14] was 0.781 µg/mL (≈ 2.16 µM), the MIC [15] was < 0.002 µg/mL and the MIC [16] was 0.781 µg/mL (≈ 2.16 µM). For the same compound, the MIC [17] was 0.781 µg/mL (≈ 2.16 µM), the MIC [18] was 0.781 µg/mL (≈ 2.16 µM) and the MIC [19] was 0.781 µg/mL (≈ 2.16 µM). It also gave an MIC [20] of 0.391 µg/mL (≈ 1.08 µM), an MIC [21] of 0.391 µg/mL (≈ 1.08 µM) and an MIC [22] of 0.781 µg/mL (≈ 2.16 µM). For the same compound, the MIC (Escherichia coli 1507 E) was 0.049 µg/mL (≈ 0.136 µM), the MIC [23] was 0.391 µg/mL (≈ 1.08 µM) and the MIC [24] was 0.025 µg/mL (≈ 0.0692 µM). For the same compound, the MIC [25] was 1.56 µg/mL (≈ 4.33 µM), the MIC (Escherichia coli DC 0 [26]) was 0.013 µg/mL (≈ 0.036 µM) and the MIC [27] was 0.049 µg/mL (≈ 0.136 µM). The MIC [28] was 0.195 µg/mL (≈ 0.54 µM), the MIC (Escherichia coli DC 0 [29]) was 0.391 µg/mL (≈ 1.08 µM) and the MIC (Salmonella typhimurium) was 0.025 µg/mL (≈ 0.0692 µM). The MIC [30] was 0.391 µg/mL (≈ 1.08 µM), the MIC [31] was 0.781 µg/mL (≈ 2.16 µM) and the MIC [32] was 0.391 µg/mL (≈ 1.08 µM). The MIC (Escherichia coli DC 2) was 0.195 µg/mL (≈ 0.54 µM), the MIC [33] was 0.391 µg/mL (≈ 1.08 µM) and the MIC [34] was 0.013 µg/mL (≈ 0.036 µM). For the same compound, the MIC [35] was 0.391 µg/mL (≈ 1.08 µM).
